Test results from patent publication US6451293B1, “Combination of erythrulose and a reducing sugar with self-tanning properties” (Pentapharm AG, priority 1997, dated 2002).

Tests used:
[1] = tested on: skin; assay: time for the skin tan/colour to develop; settings: in vivo
Method: The hitherto most frequently used active substance is dihydroxyacetone (hereinafter referred to as “DHA”). The fast tanning active substance (4-7 hours) does, however, have some disadvantages. The skin colour achieved is yellowish-brown, which produces an unnatural colour, particularly in pale skin. In addition, the tan is irregular and soon pales again because the top-most layers of the epidermis are quickly shed. […] This may be attributed to the fact that erythrulose dyes the skin more slowly (the colour takes about 20-24 hours to develop) and less intensively, but instead also penetrates lower layers of the Stratum corneum where it is also able to react with the free amino groups. This not only results in more even tanning, but also in a retarded effect, with the result that the tan lasts longer. Moreover the skin becomes less dried out than, for example, with DHA alone. The synergistic effect, that will subsequently also be shown with reference to examples, of the active substance combination erythrulose/other reducing sugars, such as for example DHA, was not predictable.

[2] = tested on: skin; settings: known active substance, background statement; cited from earlier work

SMILES	time the colour takes to develop [1] [h]	time of tanning [2] [h]
O=C(CO)C(O)CO (racemic) [erythrulose, 1,3,4-trihydroxy-butan-2-one]	20 to 24	–
O=C(CO)CO [DHA, 1,3-dihydroxy-propan-2-one]	–	4 to 7
